Assays:
Format in all cases: physicochemical
[1] = Adsorption of compound 1 onto sterile filters (assay in filtrate of formulation II)
Description: Formulation II comprising compound 1 was prepared as indicated above and filtered using selected sterile filters. Adsorption of compound 1 was determined before and after filtration using different filter types. Table 3 indicates the results of adsorption experiments using different filters.
Only hydrophobic filters show a low amount of compound 1 adsorbed onto the filter material.

[2] = Particulate matter testing of formulation I (HIAC Royco Liquid Particle Counting System); conditions: up to 8 hours
Description: Solubility of the active was tested by visual inspection using an illuminated magnifying glass with black background and confirmed by experiments assessing particulate matter using the HIAC Royco, Liquid Particle Counting System, Model 9703.
The formation of particles was assessed using the HIAC Royco, Liquid Particle Counting System, Model 9703 and in addition to the channels normally inspected (10 μm and 25 μm), also the smaller channels (2 μm and 5 μm) were used to assess the stability of the formulation. The formulation I was sterile filtered and inspected at timepoint 1 hour and 8 hours.
Table 2 indicates the results of particulate matter testing up to 8 hours of 3 individually manufactured batches
Since the handling of the solutions was made under normal laboratory conditions, the particle background measured in the sterile filtered solutions have an exogenous nature.

[3] = Stability of formulation comprising HCl salt of compound 1 for 8 hours at room temperature (HPLC assay); conditions: for assay of HCl salt of compound 1, batch 01 / assay of HCl salt of compound 1, batch 02 / assay of HCl salt of compound 1, batch 03 / assay of HCl salt of compound 1, mean [%]: formulation I, 5.51 μg/mL; for assay of HCl salt of compound 1, mean [%]: mean of 3 batches
Description: Since solutions of stilbenes are light sensitive, the solutions were stored under light protection.
A solution was prepared containing 5.51 μg/mL HCl salt of compound 1 as in formulation I. Assay was analysed after different timepoints. Three individual batches were prepared and analysed for assay and particulate matter. From these solutions samples were taken and analysed by HPLC.
Table 1 indicates the results of stability testing up to 8 hours of 3 individually manufactured batches.

Analysis of assay in filtrate ([1]; Millipore Millex 0.2 μm, Order No SLGV013SL, PVDF, hydrophobic material rendered hydrophilic by surface modification): 97.3% | Analysis of assay in filtrate ([1]; Sartorius Minisart 0.2 μm (blue), Order No 16534, Celluloseacetat, hydrophylic): 53% | Analysis of assay in filtrate ([1]; Sartorius Minisart HY 0.2 μm, Order No 16596, PTFE, hydrophobic): 96.5% | Analysis of assay in filtrate ([1]; Sartorius Minisart High Flow 0.2 μm, Order No 16532, PES, hydrophobic): 75% | amount adsorbed onto the filter material ([1]; only hydrophobic filters): low amount | chemical stability in the formulation ([3]; HCl salt, 8 hours): chemically stable | assay of HCl salt of compound 1, batch 01 ([3]; time 1 hour): 100.2% | assay of HCl salt of compound 1, batch 02 ([3]; time 1 hour): 98.3% | assay of HCl salt of compound 1, batch 03 ([3]; time 1 hour): 96.9% | assay of HCl salt of compound 1, mean [%] ([3]; time 1 hour): 98.5% | assay of HCl salt of compound 1, batch 01 ([3]; time 2 hours): 101.2% | assay of HCl salt of compound 1, batch 02 ([3]; time 2 hours): 98.4% | assay of HCl salt of compound 1, batch 03 ([3]; time 2 hours): 97.17% | assay of HCl salt of compound 1, mean [%] ([3]; time 2 hours): 98.9% | assay of HCl salt of compound 1, batch 01 ([3]; time 3 hours): 101.1% | assay of HCl salt of compound 1, batch 02 ([3]; time 3 hours): 98.7% | assay of HCl salt of compound 1, batch 03 ([3]; time 3 hours): 96.2% | assay of HCl salt of compound 1, mean [%] ([3]; time 3 hours): 98.7% | assay of HCl salt of compound 1, batch 01 ([3]; time 4 hours): 101.2% | assay of HCl salt of compound 1, batch 02 ([3]; time 4 hours): 98% | assay of HCl salt of compound 1, batch 03 ([3]; time 4 hours): 97.4% | assay of HCl salt of compound 1, mean [%] ([3]; time 4 hours): 98.9% | assay of HCl salt of compound 1, batch 01 ([3]; time 5 hours): 101.5% | assay of HCl salt of compound 1, batch 02 ([3]; time 5 hours): 98.6% | assay of HCl salt of compound 1, batch 03 ([3]; time 5 hours): 96.6% | assay of HCl salt of compound 1, mean [%] ([3]; time 5 hours): 98.9% | assay of HCl salt of compound 1, batch 01 ([3]; time 6 hours): 101.5% | assay of HCl salt of compound 1, batch 02 ([3]; time 6 hours): 98.7% | assay of HCl salt of compound 1, batch 03 ([3]; time 6 hours): 95.7% | assay of HCl salt of compound 1, mean [%] ([3]; time 6 hours): 98.6% | assay of HCl salt of compound 1, batch 01 ([3]; time 7 hours): 101.7% | assay of HCl salt of compound 1, batch 02 ([3]; time 7 hours): 98.5% | assay of HCl salt of compound 1, batch 03 ([3]; time 7 hours): 96.5% | assay of HCl salt of compound 1, mean [%] ([3]; time 7 hours): 98.9% | assay of HCl salt of compound 1, batch 01 ([3]; time 8 hours): 102.7% | assay of HCl salt of compound 1, batch 02 ([3]; time 8 hours): 98.7% | assay of HCl salt of compound 1, batch 03 ([3]; time 8 hours): 96.5% | assay of HCl salt of compound 1, mean [%] ([3]; time 8 hours): 99.3%
Compound: CNc1ccc(/C=C/c2ccc(OCCOCCOCCF)cc2)cc1 [Compound 1]
dissolution state / precipitation in formulation [2]: remains dissolved and is not precipitating
